From the CheMixHub ionic liquid set

Test: xn = mol fraction of the nth substance listed

O=S(=O)([N-]S(=O)(=O)C(F)(F)F)C(F)(F)F.[Li+] + C1COCO1
298.15 K, 100 kPa
Settings | electrical conductivity [S/m] | viscosity [mPa·s]
x1 = 8e-07 | 1.3e-05 | –
x1 = 3.74e-06 | 3.1e-05 | –
x1 = 8.82e-06 | 5e-05 | 0.58
x1 = 1.615e-05 | 6.8e-05 | 0.582
x1 = 2.378e-05 | 8.1e-05 | 0.583
x1 = 3.941e-05 | 0.000103 | 0.584
x1 = 8.444e-05 | 0.000138 | 0.585
x1 = 0.0001607 | 0.0002 | 0.588
x1 = 0.0004162 | 0.000398 | 0.589
x1 = 0.0007624 | 0.000536 | 0.591
x1 = 0.001538 | 0.000978 | 0.595
x1 = 0.002969 | 0.00173 | 0.608
x1 = 0.004513 | 0.00309 | 0.629
x1 = 0.005877 | 0.00459 | 0.633
x1 = 0.007354 | 0.00664 | 0.637
x1 = 0.01099 | 0.0164 | 0.661
x1 = 0.0146 | 0.0294 | 0.683
x1 = 0.02174 | 0.0659 | 0.758
x1 = 0.03572 | 0.169 | 0.905
x1 = 0.06897 | 0.446 | 1.388
x1 = 0.08475 | 0.563 | 1.684
x1 = 0.1 | 0.643 | 2.11
x1 = 0.1285 | 0.738 | 3.122
x1 = 0.1563 | 0.744 | 4.4
x1 = 0.1818 | 0.69 | 6.52
x1 = 0.2054 | 0.606 | 9.99
x1 = 0.2273 | 0.512 | 13.96
x1 = 0.2467 | 0.431 | 20.04
x1 = 0.2703 | 0.337 | 30.3

CCCCn1cc[n+](C)c1C.O=S(=O)([N-]S(=O)(=O)C(F)(F)F)C(F)(F)F + CC1COC(=O)O1
101.3 kPa
Settings | viscosity [mPa·s]
288.15 K, x1 = 0.6989 | 76.5
293.15 K, x1 = 0.0902 | 4.602
293.15 K, x1 = 0.6034 | 43.21
298.15 K, x1 = 0.4039 | 16.99
303.15 K, x1 = 0.193 | 5.92
303.15 K, x1 = 0.4996 | 20.52
303.15 K, x1 = 0.8107 | 50
303.15 K, x1 = 1 | 78.6
308.15 K, x1 = 0.193 | 5.23
308.15 K, x1 = 0.8107 | 40.47
313.15 K, x1 = 0.0902 | 2.96
313.15 K, x1 = 0.4039 | 10.52
313.15 K, x1 = 1 | 50.1
318.15 K, x1 = 0.193 | 4.177
318.15 K, x1 = 0.2934 | 6.16
318.15 K, x1 = 0.4996 | 13.02
318.15 K, x1 = 0.8107 | 27.72
318.15 K, x1 = 1 | 41.04
328.15 K, x1 = 0.0902 | 2.263
333.15 K, x1 = 0.8107 | 17.54
333.15 K, x1 = 1 | 24.25
338.15 K, x1 = 0.2934 | 4.026
338.15 K, x1 = 0.4996 | 7.4
343.15 K, x1 = 0.4996 | 6.47
343.15 K, x1 = 0.6034 | 8.56

CCCC[N+](C)(C)C[c-]1cccc1.O=S(=O)([N-]S(=O)(=O)C(F)(F)F)C(F)(F)F.[Fe+2].c1cc[cH-]c1 + CC#N
100 kPa
Settings | electrical conductivity [S/m]
298 K, x1 = 0.03 | 2.17
303 K, x1 = 0.1 | 1.88
308 K, x1 = 0.08 | 2.2
308 K, x1 = 0.2 | 0.945
313 K, x1 = 0.07 | 2.47
318 K, x1 = 0.01 | 1.58
318 K, x1 = 0.06 | 2.67
318 K, x1 = 0.08 | 2.47
318 K, x1 = 0.15 | 1.58
318 K, x1 = 0.2 | 1.14
323 K, x1 = 0.01 | 1.64
323 K, x1 = 0.2 | 1.24
328 K, x1 = 0.05 | 2.95
328 K, x1 = 0.12 | 2.19
333 K, x1 = 0.01 | 1.75
333 K, x1 = 0.02 | 2.5
333 K, x1 = 0.03 | 2.92
333 K, x1 = 0.07 | 3
338 K, x1 = 0.05 | 3.2
338 K, x1 = 0.07 | 3.15
343 K, x1 = 0.07 | 3.28
343 K, x1 = 0.08 | 3.15
343 K, x1 = 0.15 | 2.19
348 K, x1 = 0.02 | 2.76
348 K, x1 = 0.07 | 3.42
348 K, x1 = 0.08 | 3.3
348 K, x1 = 0.12 | 2.74

CCCC[N+]1(C)CCCC1.O=S(=O)([O-])C(F)(F)F + CC#N
viscosity [mPa·s], 101 kPa
Settings | 288.15 K | 293.15 K | 298.15 K
x1 = 0.0008322 | 0.377 | 0.358 | 0.34
x1 = 0.001153 | 0.379 | 0.359 | 0.342
x1 = 0.001607 | 0.381 | 0.361 | 0.345
x1 = 0.002041 | 0.383 | 0.364 | 0.347
x1 = 0.002439 | 0.386 | 0.366 | 0.349
x1 = 0.002832 | 0.388 | 0.368 | 0.351
x1 = 0.003272 | 0.39 | 0.369 | 0.353
x1 = 0.003684 | 0.392 | 0.372 | 0.355
x1 = 0.004131 | 0.394 | 0.374 | 0.357
x1 = 0.00964 | 0.423 | 0.404 | 0.386
x1 = 0.01639 | 0.458 | 0.437 | 0.417
x2 = 0.9756 | 0.498 | 0.473 | 0.45

O=S(=O)([N-]S(=O)(=O)C(F)(F)F)C(F)(F)F.[Li+] + CC#N
100 kPa
Settings | electrical conductivity [S/m] | viscosity [mPa·s]
293 K, x1 = 0.25 | – | 17.9
303.15 K, x1 = 0.02067 | 2.79 | –
303.15 K, x1 = 0.03069 | 3.23 | –
308.15 K, x1 = 0.03069 | 3.34 | –
308.15 K, x1 = 0.04052 | 3.85 | –
308.15 K, x1 = 0.05013 | 4.25 | –
308.15 K, x1 = 0.07787 | 4.14 | –
313.15 K, x1 = 0.02067 | 3.03 | –
313.15 K, x1 = 0.07787 | 4.35 | –
318.15 K, x1 = 0.04052 | 4.16 | –
318.15 K, x1 = 0.05013 | 4.64 | –
323.15 K, x1 = 0.05957 | 4.97 | –
328.15 K, x1 = 0.05013 | 4.99 | –
328.15 K, x1 = 0.05957 | 5.14 | –
333.15 K, x1 = 0.05957 | 5.28 | –

[N-]=C=S.[NH4+] + CC(=O)[O-].CC[n+]1ccn(C)c1
101 kPa
Settings | electrical conductivity [S/m] | viscosity [mPa·s]
298.15 K, x1 = 0.3001 | 0.344 | 194.6
298.15 K, x1 = 0.3199 | 0.353 | 195.4
303.15 K, x1 = 0.1002 | 0.371 | 117.6
303.15 K, x1 = 0.1998 | 0.386 | 139.3
303.15 K, x1 = 0.3001 | 0.447 | 141.9
308.15 K, x1 = 0.1998 | 0.491 | 104
308.15 K, x1 = 0.2514 | 0.525 | –
308.15 K, x1 = 0.3413 | 0.587 | –
313.15 K, x1 = 0.3413 | 0.807 | 81.7
318.15 K, x1 = 0.1998 | 0.852 | 61.5
328.15 K, x1 = 0.1002 | – | 34.29
328.15 K, x1 = 0.3199 | – | 39.29
333.15 K, x1 = 0.02 | – | 25.64
333.15 K, x1 = 0.1002 | – | 28.06
333.15 K, x1 = 0.1998 | – | 31.2
333.15 K, x1 = 0.3001 | – | 31.43

CCCCCCCCCC[n+]1ccn(C)c1.[Cl-] + CC(C)O
298.15 K, 101.3 kPa, frequency 5e-05 MHz
Settings | electrical conductivity [S/m]
x1 = 0.01207 | 0.0497
x1 = 0.02515 | 0.0872
x1 = 0.03936 | 0.126
x1 = 0.05486 | 0.17
x1 = 0.07184 | 0.218
x1 = 0.09051 | 0.266
x1 = 0.1111 | 0.308
x1 = 0.134 | 0.337
x1 = 0.1597 | 0.348
x1 = 0.1884 | 0.343
x1 = 0.2211 | 0.326
x1 = 0.2583 | 0.312
x1 = 0.3013 | 0.325
x1 = 0.3514 | 0.399
x1 = 0.4106 | 0.584
x1 = 0.4815 | 0.944

CS(=O)(=O)[O-].C[N+](C)(CCO)CCO + CC(C)O
viscosity [mPa·s], 101 kPa
Settings | x1 = 0.0998 | x1 = 0.2001 | x1 = 0.3002 | x1 = 0.4004 | x1 = 0.4982 | x1 = 0.5999 | x1 = 0.6997 | x1 = 0.7978 | x1 = 0.8994 | x1 = 1
298.15 K | 5.62 | 13.5 | 30.1 | 61 | 123 | 227 | 385 | 628 | 1025 | 1495
303.15 K | 4.78 | 11.45 | 24.1 | 47.7 | 86.7 | 168 | 281 | 445 | 712 | 1021
308.15 K | 4.13 | 9.67 | 19.7 | 38 | 67.4 | 128.7 | 210 | 324 | 507 | 716
313.15 K | 3.6 | 8.13 | 16.3 | 30.7 | 53.4 | 89.6 | 159 | 243 | 370 | 513
318.15 K | 3.36 | 6.96 | 13.7 | 25.2 | 43 | 70.7 | 123.6 | 186 | 278 | 378
323.15 K | 2.83 | 6.02 | 11.86 | 21 | 35.1 | 56.7 | 87 | 143.8 | 211 | 282
